Data as given in patent US20200046654A1, “BUPROPION AND PHARMACEUTICAL COMPOSITION FOR TREATING CANCER AND METHOD FOR INHIBITING MIGRATION OF TUMOR CELLS” (NATIONAL CHIAO TUNG UNIVERSITY, priority 2018, published 2020).

What was measured:
[1] = biological target: CHRNA9/CFP and ERBB2/YFP (Homo sapiens, UniProt Q9UGM1)
Source text: In order to further investigate the interaction between CHRNA9 and ERBB2 ex vivo, a plasmid expressing CHRNA9/CFP and a plasmid expressing ERBB2/YFP were constructed and then co-transfected into MDA-MB-231 cells. FRET and fluorescence-lifetime imaging microscopy (FLIM) were used.
To further clarify whether CHRNA9 and ERBB2 are dissociated after nicotine exposure, two-photon FLIM was used to monitor the FRET activity between CHRNA9/CFP and ERBB2/YFP. The plasmids expressing CHRNA9/CFP and the plasmids expressing ERBB2/YFP were co-transfected into MDA-MB-231 cells. After two days, the cells were treated with 10 μM nicotine.

[2] = test system: MDA-MB-231 cells with a luminescence reporter gene; assay: MDA-MB-231-based spontaneous pulmonary metastasis animal model; type: in vivo, SCID mice; conditions: two months; for number of the migrating tumor cells to the lungs (photon flux): bupropion i.p. three times a week, 100 or 200 μg per kilogram
Procedure: MDA-MB-231 cells with a luminescence reporter gene were implanted into severe combined immunodeficiency (SCID) mice. The nicotine treatment was carried out by adding nicotine (10 μg/ml) to the drinking water of the mice. The mice were injected intraperitoneally with bupropion three times a week at doses of 100 or 200 μg per kilogram. After two months, the mice were sacrificed and the lungs were dissected. IVIS was used to take the luminescence images of the lungs. The photon influx measured in the images represents the metastasis level of the mouse tumor cells to the lung tissue.

[3] = biological target: CHRNA9/ERBB2 complex (Homo sapiens, UniProt Q9UGM1); conditions: oral nicotine, at 30 minutes of exposure, vs before exposure
Source text: Split luciferase complementation assay was used to investigate the association and dissociation between CHRNA9 and ERBB2.
The N terminal (Nluc) and the C terminal (Cluc) of luciferase were respectively constructed with ERBB2 and CHRNA9 to form the plasmids expressing the fusion proteins. When ERBB2 and CHRNA9 interact with each other, the Nluc and the Cluc are also close to each other to assemble together, and present luciferase activity. Therefore, after Luciferin addition, luminescence can be generated. When ERBB2 and CHRNA9 dissociate from each other, the Nluc and Cluc also dissociate from each other; therefore, no luciferase activity exists.
Then a xenograft animal model was used. Plasmids expressing ERBB2/Nluc fusion protein and plasmids expressing CHRNA9/Cluc fusion protein were co-transfected into MDA-MB-231 cells, then the cells expressing the fusion proteins were injected into the mammary pads of nude mice.

[4] = test system: MDA-MB-231 cells; assay: cell migration assay, MDA-MB-231; type: cell-based, human; conditions: 12 hours, with or without nicotine
Procedure: (§1) MDA-MB-231 cells well treated with or without (control group) nicotine, DMSO, 0.1 μM, and 1 μM bupropion were then respectively added to the cells. Twelve hours after bupropion addition, the cells were fixed with formaldehyde, and stained with PI for 30 minutes; then photos of the cells were acquired. The numbers of migrating cells were calculated by imageJ software. This assay was repeated 3 times.

[5] = test system: MDA-MB-453; assay: cell migration assay, MDA-MB-453; type: cell-based, human
Procedure: as §1
In addition, a HER2 overexpression subtype of a breast cancer cell line, MDA-MB-453, was used to test the inhibitory effect of bupropion on tumor migration. The experimental method was the same as the cell migration assay of Example 7 above.

[6] = test system: MDA-MB-231 cells; assay: cell invasion assay (Matrigel invasion chambers); type: cell-based, human; conditions: 48 hours, with or without nicotine
Procedure: The inhibitory effect of bupropion on tumor invasion was tested by cell invasion assay. MDA-MB-231 cells were plated on to Matrigel invasion chambers in serum-starved medium, and the cells in the lower chamber were cultured using normal medium. The media in both of the upper and the lower chambers contained 0.1 μM bupropion, or 1 μM bupropion, and the cells were treated with or without (control group) nicotine. After the cells were cultured for 48 hours, the upper chambers were washed with PBS and fixed with formaldehyde for 30 minutes. The cells in the upper chambers were stained with crystal violet for two hours, and photos were acquired under a microscope. The numbers of invading tumor cells were calculated by ImageJ software.

Chain of CHRNA9/CFP and ERBB2/YFP (Q9UGM1 23-479): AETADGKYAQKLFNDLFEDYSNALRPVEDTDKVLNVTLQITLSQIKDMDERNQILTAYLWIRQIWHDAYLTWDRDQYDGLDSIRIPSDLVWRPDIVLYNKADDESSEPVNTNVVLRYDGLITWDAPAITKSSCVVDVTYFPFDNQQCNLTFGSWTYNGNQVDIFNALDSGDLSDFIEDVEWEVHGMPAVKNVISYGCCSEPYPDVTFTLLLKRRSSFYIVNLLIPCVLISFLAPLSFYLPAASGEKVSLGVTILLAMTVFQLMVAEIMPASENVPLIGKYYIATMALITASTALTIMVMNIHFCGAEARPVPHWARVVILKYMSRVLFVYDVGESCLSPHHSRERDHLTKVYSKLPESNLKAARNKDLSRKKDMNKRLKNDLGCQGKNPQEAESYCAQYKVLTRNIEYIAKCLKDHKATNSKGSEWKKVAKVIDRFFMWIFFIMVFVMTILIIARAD
Chain of CHRNA9/ERBB2 complex (Q9UGM1 23-479, one chain of several): as the sequence (Q9UGM1 23-479) above

Row | SMILES | FRET activity on the cell membrane between CHRNA9/CFP and ERBB2/YFP ([1]; after 10 μM nicotine exposure, MDA-MB-231 cells) | FRET activity on the membrane after removal of nicotine ([1]; cells washed with PBS to remove nicotine) | number of the metastatic tumor cells in the lung tissues (photon flux) ([2]; nicotine 10 μg/ml in drinking water) | photon influx (luciferase activity in tumor region) relative to control group [3] [%] | migration of MDA-MB-231 cells ([4]; 0.1 μM bupropion) | migration of MDA-MB-231 cells ([4]; 1 μM bupropion) | number of the migrating tumor cells to the lungs (photon flux) ([2]; nicotine-free mice) | number of the migrating tumor cells to the lungs (photon flux) ([2]; nicotine-treated mice) | migration of MDA-MB-453 cells ([5]; 0.1 μM bupropion) | migration of MDA-MB-453 cells ([5]; 1 μM bupropion) | invasion of MDA-MB-231 cells ([6]; 0.1 μM bupropion) | invasion of MDA-MB-231 cells ([6]; 1 μM bupropion)
1 | CN1CCCC1c1cccnc1 (stereo not drawn) [nicotine] | gradually decreased | gradually recovered to the baseline | significantly increased | 26.3 | – | – | – | – | – | – | – | –
2 | CC(NC(C)(C)C)C(=O)c1cccc(Cl)c1 (stereo not drawn) [bupropion] | – | – | – | – | significantly inhibited | significantly inhibited | significantly decreased | significantly decreased | significantly inhibited | significantly inhibited | significantly inhibited | significantly inhibited
